Literature values as cited in patent US20240047033A1, “MULTI-OMICS METHODS FOR PRECISION MEDICINE” (UNIVERSITY OF PITTSBURGH-OF THE COMMONWEALTH SYSTEM OF …, priority 2020, published 2024).

System: non-small cell lung cancer (NSCLC) tumors
Conditions: pretreated chemorefractory NSCLC patients, Erlotinib monotherapy, 28 patients

For `C#Cc1cccc(Nc2ncnc3cc(OCCOC)c(OCCOC)cc23)c1` [Erlotinib], the “time within which all treated patients progressed” value is given as “six”.
